Measurements reported in US7566453B2, “Methods for treating melanomas” (Chugai Seiyaku Kabushiki Kaisha, priority 1998, dated 2009).

System: KPMM2 cells
Conditions: fixed concentration of anti-human IL-6 receptor antibody; 0.1 or 1 ng/ml IL-6 (FIG. 1 to 6)
Method: The effects of anti-human IL-6 receptor antibody on sensitivity of KPMM2 cells to chemotherapeutic agents used for treatment of myeloma such as adriamycin (ADR, manufactured by Kyowa Hakko), vincristine (VCR, manufactured by Sigma Chemical Co.), and melphalan (L-PAM, manufactured by Sigma Chemical Co.) were evaluated.
KPMM2 is a multiple myeloma cell line derived from the ascites of a human patient with myeloma (see Japanese Unexamined Patent Publication (Kokai) No. 7-236475). […] The growth activity of the cell was evaluated by incorporation of ^3H-labeled thymidine (manufactured by Amersham) into the cell.
The KPMM2 cells that had been maintained were washed thoroughly with a fresh medium (RPMI1640 medium supplemented with 20% FBS), and then were adjusted to 4×10^5/ml, which was dispensed in 50 μl aliquots in a 96-well flat-bottomed microtiter plate (manufactured by Falcon). Furthermore, a medium containing a recombinant human IL-6 (Asagoe, Y. et al., Bio/Technology (1988) 6, 806-809), anti-human IL-6 receptor antibody hPM-1 (see the above reference example 1 or International Patent Application WO 92-15759), and the above chemotherapeutic agents or a fresh medium as control were added to make 200 μl in each well.
The plate was incubated at 37° C. for 4 days under the humidified condition in the presence of 5% CO2. At four hours before the end of incubation, 10 μl of ^3H-labeled thymidine solution (100 μCi/ml) was added to each well, and then incubated for more 4 hours. At the end of incubation, the cells were collected onto the glass filter (manufactured by Printed Filtermat A, WALLAC) using a harvester (Micro 96 Harvester, manufactured by SKATRON Instruments). The radioactivity incorporated into the cells was measured by a microbeta (1450 MicroBeta, manufactured by WALLAC).
The activity of growth inhibition on KPMM2 was expressed using the effect by a chemotherapeutic agent alone as the control. Using the incorporation of ^3H-labeled thymidine into the cell for each experimental group in which a each concentration of a chemotherapeutic agent was added as 100, the amount of ^3H-labeled thymidine incorporated into the cell in an experimental group in which anti-human IL-6 receptor antibody was simultaneously added was compared as an index.

SMILES	relationship of growth index with the concentration of chemotherapeutic agent
COc1cccc2c1C(=O)c1c(O)c3c(c(O)c1C2=O)C[C@@](O)(C(=O)CO)C[C@@H]3O[C@H]1C[C@H](N)[C@H](O)[C@H](C)O1 [adriamycin]	almost constant regardless of their concentration
CC[C@]1(O)C[C@H]2CN(CCc3c([nH]c4ccccc34)[C@@](C(=O)OC)(c3cc4c(cc3OC)N(C=O)[C@H]3[C@@](O)(C(=O)OC)[C@H](OC(C)=O)[C@]5(CC)C=CCN6CC[C@]43[C@@H]65)C2)C1 [vincristine]	almost constant regardless of their concentration
